The record followed here is PubChem BioAssay (NCI).

Common to all, as to experiment: NCI-60 cell line screen, 48 h
In experiment [1] the test system is RPMI-8226 leukemia.
The subject of experiment [2] is MDA-MB-231 breast.
The test system of experiment [3] is T-47D breast.
Experiment [4] concerns EKVX NSCLC.
In experiment [5] the test system is SF-295 CNS.
In experiment [6] the test system is U251 CNS.
Experiment [7] has as its system SK-MEL-5 melanoma.
The subject of experiment [8] is COLO 205 colon.
The test system of experiment [9] is SN12C renal.
Experiment [10] concerns SR leukemia.

Values joined by “and” are separate entries in the source; they are usually repeats but may differ in a detail not shown here. Equal values may be shown once.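 1) Cells in 96-well plates. 2) Compound, 48 h, 5 concentrations. 3) Linear interpolation between surrounding doses. 4) Unreached endpoint = highest concentration. GI50: concentration for 50% inhibition of growth. TGI marks complete inhibition of growth.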 A value given as a limit tells only on which side of the number the result lay.

For `Clc1cccc(N2CCN(CCN3CCc4c([nH]c5ccccc45)C3c3cccnc3)CC2)c1` (stereo not given), the TGI was greater than 84.1 µM in experiment [1]; greater than 100 µM in experiment [2]; greater than 100 µM in [3]; 99.7 µM in experiment [4]; greater than 100 µM in experiment [5]; greater than 100 µM in [6]. Moreover, the TGI in [7] was greater than 100 µM; in experiment [8], greater than 84 µM; in experiment [9], greater than 92.2 µM; in experiment [10] it was greater than 100 µM.
In the case of `Cc1cc(Oc2cnc(=O)[nH]c2)cs1`, the TGI in experiment [1], in [2], in experiment [3], in experiment [4], in experiment [5] and in [6] was greater than 100 µM each time. The TGI in [7], in experiment [8], in experiment [9] and in experiment [10] was greater than 100 µM each time.
In the case of `CN1CCC(C(=O)Nc2n[nH]c3nc(-c4ccc(O)cc4)c(Br)cc23)CC1`, the GI50 is 9.78 µM and 24.4 µM in experiment [1]; 1.4 µM and 3.97 µM in [2]; 1.12 µM and 1.72 µM in experiment [3]; 6.62 µM and 2.51 µM in [4]; 3.94 µM and 3.41 µM in experiment [5]; 0.661 µM and 0.848 µM in experiment [6]. The GI50 in [7] is 0.599 µM and 1.3 µM; in experiment [8] it was 1 µM and 1.3 µM; in [9], 1.76 µM and 4.18 µM; in [10], 0.701 µM and 0.306 µM. Moreover, the TGI is greater than 25 µM in experiment [1]; 11.3 µM and 16 µM in experiment [2]; greater than 16.9 µM in experiment [3]; greater than 25 µM in experiment [4]; 20.1 µM and 22.3 µM in experiment [5]; greater than 25 µM in [6]. For the same compound, the TGI in [7] was 2.3 µM and 4.14 µM; in [8], 3.7 µM and 3.04 µM; in experiment [9], greater than 25 µM; in experiment [10], greater than 25 µM.
For `COc1cc2c(cc1OC)C(CC1(O)CCCCC1)N(S(=O)(=O)c1ccc(C)cc1)CC2` (stereo not given), the GI50 in experiment [1], in [2], in experiment [3], in [5], in experiment [6] and in experiment [7] was greater than 10 µM each time. Also, the GI50 in experiment [8], in experiment [9] and in [10] was greater than 10 µM throughout. The TGI in experiment [1], in [2], in experiment [3], in [5], in experiment [6] and in experiment [7] was greater than 10 µM each time. For the same compound, the TGI in experiment [8], in [9] and in experiment [10] was greater than 10 µM each time.
Regarding `COc1ccc(SC2c3ccc(C)cc3Oc3nc(N)c(C#N)c(N)c32)cc1` (stereo not given), the GI50 is 2.47 µM in [1]; 1.81 µM in experiment [2]; 1.9 µM in [3]; 1.73 µM in [4]; 1.55 µM in [5]; 1.81 µM in experiment [6]. The GI50 in [7] is 1.77 µM. Further, the TGI in experiment [1] worked out at 6.56 µM; in experiment [2], 3.28 µM; in [3], 4.63 µM; in experiment [4], 3.2 µM; in experiment [5], 2.89 µM; in [6], 3.22 µM. For the same compound, the TGI in experiment [7] is 3.15 µM.
Turning to `COc1ccc2c(c1)CCc1[nH]nc(-c3cc(OC)c(OC)c(OC)c3)c1-2`, the GI50 in [2] is less than 0.01 µM; in [3] it was 3.59 µM; in experiment [5], less than 0.01 µM; in experiment [6] it was less than 0.01 µM; in [7], less than 0.01 µM; in experiment [8] it was less than 0.01 µM. The GI50 in experiment [9] and in experiment [10] was less than 0.01 µM in each case. In addition, the TGI was 44.8 µM in experiment [2]; 21.3 µM in [3]; 3.22 µM in [5]; 11.5 µM in [6]; less than 0.01 µM in experiment [7]; less than 0.01 µM in experiment [8]. In addition, the values for the TGI in experiment [9] and in [10] were 22 µM and 22.9 µM, respectively.
As to `O=CC(Br)C(Br)c1ccccc1` (stereo not given), the GI50 in experiment [1] is 2.14 µM; in experiment [2], 2.01 µM; in experiment [3], 0.942 µM; in experiment [5], 12.8 µM; in experiment [6] it was 7.4 µM; in experiment [7], 3.58 µM. Further, the GI50 in experiment [8] is 2.17 µM; in experiment [9], 3.06 µM; in experiment [10], 0.445 µM. The TGI in experiment [1] amounted to 5.39 µM; in experiment [2], 4.22 µM; in experiment [3], 3.17 µM; in [5], 27.7 µM; in experiment [6], 20.4 µM; in [7], 13.8 µM. Moreover, the TGI in [8] amounted to 4.55 µM; in [9], 11.4 µM; in experiment [10] it was 2.81 µM.
Take `CCCCOC(=O)c1ccc(NC(=O)CCl)cc1`: the GI50 in [2] is 1.63 µM; in [3], 1.38 µM; in experiment [4], 2.37 µM; in experiment [5] it was 10.5 µM; in experiment [6], 1.71 µM; in [7], 1.55 µM. The GI50 in experiment [9] is 1.56 µM; in experiment [10], 1.67 µM. The TGI turned out to be 3.26 µM in experiment [2]; 4.01 µM in [3]; 7.13 µM in experiment [4]; 23.1 µM in experiment [5]; 3.1 µM in [6]; 3.04 µM in [7]. Further, the TGI was 3.36 µM in [9] and 3.85 µM in experiment [10].
Regarding `CCCOC(=O)N[C@H]1CCc2cc(OC)c(OC)c(OC)c2-c2ccc(SC)c(=O)cc21`, the GI50 in experiment [1], in [2], in [4], in experiment [5], in experiment [6] and in [7] was less than 0.01 µM each time. The GI50 in [8], in [9] and in [10] was less than 0.01 µM each time. Besides, the TGI in experiment [1] is 8.22 µM; in [2] it was 25.5 µM; in experiment [4], greater than 100 µM; in [5], 6.77 µM; in [6], greater than 34.1 µM; in experiment [7] it was 0.018 µM. In addition, the TGI in experiment [8] is 0.0108 µM; in experiment [9], greater than 100 µM; in experiment [10], greater than 56.3 µM.
